Source: article PMC9516332 (Frontiers in Oncology, 2022)
Like-named read-outs stand apart in the source and are kept apart here.

How the values were obtained:
134 cancer cell lines = assay: Cell viability assay (ATPlite, 72 hours), IC50 on cancer cell line panel
[1] = target: panel of 255 wild-type kinases (Homo sapiens, UniProt Q13882); assay: Kinase panel profiling at 1 µmol/L (MSA or IMAP), percentage inhibition; format: biochemical; details: BRK kinase assay; 1 µmol/L single concentration; read-out: %-inhibition BRK
[2] = target: panel of 255 wild-type kinases (Homo sapiens, UniProt P06241); assay: as above; format: biochemical; details: kinase FYN [isoform a]; 1 µmol/L single concentration; read-out: %-inhibition at 1 µmol/L, FYN [isoform a]
[3] = target: panel of 255 wild-type kinases (Homo sapiens, UniProt Q9H422); assay: as above; format: biochemical; details: kinase HIPK3; 1 µmol/L single concentration; read-out: %-inhibition at 1 µmol/L, HIPK3
[4] = target: panel of 255 wild-type kinases (Homo sapiens, UniProt P48729); assay: as above; format: biochemical; details: kinase CK1α; 1 µmol/L single concentration; read-out: %-inhibition at 1 µmol/L, CK1α
[5] = target: panel of 255 wild-type kinases (Homo sapiens, UniProt Q16816); assay: as above; format: biochemical; details: kinase PHKG1; 1 µmol/L single concentration; read-out: %-inhibition at 1 µmol/L, PHKG1

IC50 (134 cancer cell lines; Homo sapiens, NCCIT, read-out: IC50 in cell proliferation assay, NCC-IT cell line): 25.9 µM
IC50 (134 cancer cell lines; Homo sapiens, NCI-H82, read-out: IC50 in cell proliferation assay, cell line NCI-H82): 6.84 µM
IC50 (134 cancer cell lines; Homo sapiens, NCI-H460, read-out: IC50 in cell proliferation assay, NCI-H460 cell line): 0.297 µM
IC50 (134 cancer cell lines; Homo sapiens, NCI-H661, read-out: IC50 in cell proliferation assay, NCI-H661 cell line): > 31.6 µM
IC50 (134 cancer cell lines; Homo sapiens, NCI-H716, read-out: IC50 in cell proliferation assay, cell line NCI-H716 (FGFR2-COL14A1)): 0.197 µM
IC50 (134 cancer cell lines; Homo sapiens, NCI-H1650, read-out: IC50 in cell proliferation assay, NCI-H1650 cell line (EGFR exon19del)): > 31.6 µM
IC50 (134 cancer cell lines; Homo sapiens, NCI-H1975, read-out: IC50 in cell proliferation assay, NCI-H1975 cell line (EGFR p.L858R + p.T790M)): 1.92 µM
IC50 (134 cancer cell lines; Homo sapiens, NCI-H2228, read-out: IC50 in cell proliferation assay, NCI-H2228 cell line (EML4-ALK)): 0.294 µM
IC50 (134 cancer cell lines; Homo sapiens, OVCAR-3, read-out: IC50 in cell proliferation assay, cell line OVCAR-3): > 31.6 µM
IC50 (134 cancer cell lines; Homo sapiens, PFSK-1, read-out: IC50 in cell proliferation assay, cell line PFSK-1): > 31.6 µM
IC50 (134 cancer cell lines; Homo sapiens, RL95-2, read-out: IC50 in cell proliferation assay, cell line RL95-2 (EGFR p.A289V)): 0.012 µM
IC50 (134 cancer cell lines; Homo sapiens, RPMI-7951, read-out: IC50 in cell proliferation assay, cell line RPMI-7951 (BRAF p.V600E)): 0.143 µM
IC50 (134 cancer cell lines; Homo sapiens, RS4-11, read-out: IC50 in cell proliferation assay, cell line RS4;11): 18.2 µM
IC50 (134 cancer cell lines; Homo sapiens, Rec1, read-out: IC50 in cell proliferation assay, cell line REC-1): > 31.6 µM
IC50 (134 cancer cell lines; Homo sapiens, SHP77, read-out: IC50 in cell proliferation assay, cell line SHP-77): > 31.6 µM
IC50 (134 cancer cell lines; Homo sapiens, SK-BR-3, read-out: IC50 in cell proliferation assay, cell line SK-BR-3 (ERBB2 amplification)): > 31.6 µM
IC50 (134 cancer cell lines; Homo sapiens, SK-N-AS, read-out: IC50 in cell proliferation assay, cell line SK-N-AS): 0.02 µM
IC50 (134 cancer cell lines; Homo sapiens, SK-N-FI, read-out: IC50 in cell proliferation assay, cell line SK-N-FI): 8.41 µM
IC50 (134 cancer cell lines; Homo sapiens, SK-N-MC, read-out: IC50 in cell proliferation assay, cell line SK-N-MC): > 31.6 µM
IC50 (134 cancer cell lines; Homo sapiens, SK-N-SH, read-out: IC50 in cell proliferation assay, cell line SK-N-SH (ALK p.F1174L)): 0.066 µM
IC50 (134 cancer cell lines; Homo sapiens, SNU-5, read-out: IC50 in cell proliferation assay, cell line SNU-5 (MET amplification)): 1.31 µM
IC50 (134 cancer cell lines; Homo sapiens, SNU-16, read-out: IC50 in cell proliferation assay, cell line SNU-16 (FGFR2 amplification)): > 31.6 µM
IC50 (134 cancer cell lines; Homo sapiens, SNU-C2B, read-out: IC50 in cell proliferation assay, cell line SNU-C2B (EGFR p.R165Q)): 0.036 µM
IC50 (134 cancer cell lines; Homo sapiens, SU-DHL-1, read-out: IC50 in cell proliferation assay, cell line SU-DHL-1 (NPM1-ALK)): 7.71 µM
IC50 (134 cancer cell lines; Homo sapiens, SU-DHL-6, read-out: IC50 in cell proliferation assay, cell line SU-DHL-6): > 31.6 µM
IC50 (134 cancer cell lines; Homo sapiens, SUP-T1, read-out: IC50 in cell proliferation assay, cell line SUP-T1): > 31.6 µM
IC50 (134 cancer cell lines; Homo sapiens, SW48, read-out: IC50 in cell proliferation assay, cell line SW48 (EGFR p.G719S)): 0.034 µM
IC50 (134 cancer cell lines; Homo sapiens, SW480, read-out: IC50 in cell proliferation assay, cell line SW480): 0.029 µM
IC50 (134 cancer cell lines; Homo sapiens, SW626, read-out: IC50 in cell proliferation assay, cell line SW626): 0.044 µM
IC50 (134 cancer cell lines; Homo sapiens, SW780, read-out: IC50 in cell proliferation assay, cell line SW780 (FGFR3-BAIAP2L1)): 0.447 µM
IC50 (134 cancer cell lines; Homo sapiens, SW837, read-out: IC50 in cell proliferation assay, cell line SW837): 0.22 µM
IC50 (134 cancer cell lines; Homo sapiens, SW872, read-out: IC50 in cell proliferation assay, cell line SW872 (BRAF p.V600E)): 0.025 µM
IC50 (134 cancer cell lines; Homo sapiens, SW900, read-out: IC50 in cell proliferation assay, cell line SW900): 0.035 µM
IC50 (134 cancer cell lines; Homo sapiens, SW948, read-out: IC50 in cell proliferation assay, cell line SW948): 0.062 µM
IC50 (134 cancer cell lines; Homo sapiens, SW982, read-out: IC50 in cell proliferation assay, cell line SW982 (BRAF p.V600E)): 0.972 µM
IC50 (134 cancer cell lines; Homo sapiens, SW-620, read-out: IC50 in cell proliferation assay, cell line SW620): 0.024 µM
IC50 (134 cancer cell lines; Homo sapiens, T98G, read-out: IC50 in cell proliferation assay, cell line T98G): > 31.6 µM
IC50 (134 cancer cell lines; Homo sapiens, TCC-SUP, read-out: IC50 in cell proliferation assay, cell line TCCSUP): > 31.6 µM
IC50 (134 cancer cell lines; Homo sapiens, THP-1, read-out: IC50 in cell proliferation assay, cell line THP-1): 0.025 µM
IC50 (134 cancer cell lines; Homo sapiens, U2OS, read-out: IC50 in cell proliferation assay, cell line U2OS): 10.6 µM
IC50 (134 cancer cell lines; Homo sapiens, U-87 MG, read-out: IC50 in cell proliferation assay, cell line U-87MG ATCC): 1.09 µM
IC50 (134 cancer cell lines; Homo sapiens, U-118-MG, read-out: IC50 in cell proliferation assay, cell line U-118MG): > 31.6 µM
IC50 (134 cancer cell lines; Homo sapiens, UMUC3, read-out: IC50 in cell proliferation assay, cell line UM-UC-3): 0.801 µM
IC50 (134 cancer cell lines; Hs766T, read-out: IC50 in cell proliferation assay, Hs 766T cell line): 0.022 µM
IC50 (134 cancer cell lines; L-82, read-out: IC50 in cell proliferation assay, L-82 cell line (NPM1-ALK)): 0.95 µM
IC50 (134 cancer cell lines; Rh30, read-out: IC50 in cell proliferation assay, cell line Rh30): > 31.6 µM
IC50 (134 cancer cell lines; read-out: IC50 in cell proliferation assay, 11-18 cell line (EGFR p.L858R)): > 31.6 µM
IC50 (134 cancer cell lines; read-out: IC50 in cell proliferation assay, Hs 852.T cell line): 0.345 µM
IC50 (134 cancer cell lines; read-out: IC50 in cell proliferation assay, JAR cell line): > 31.6 µM
IC50 (134 cancer cell lines; read-out: IC50 in cell proliferation assay, cell line 5637): 8 µM
IC50 (134 cancer cell lines; read-out: IC50 in cell proliferation assay, cell line A-388): > 31.6 µM
IC50 (134 cancer cell lines; read-out: IC50 in cell proliferation assay, cell line DB): > 31.6 µM
IC50 (134 cancer cell lines; read-out: IC50 in cell proliferation assay, cell line DEL (NPM1-ALK)): > 31.6 µM
IC50 (134 cancer cell lines; read-out: IC50 in cell proliferation assay, cell line ES-2 (BRAF p.V600E)): 0.242 µM
IC50 (134 cancer cell lines; read-out: IC50 in cell proliferation assay, cell line PA-1): 0.556 µM
IC50 (134 cancer cell lines; read-out: IC50 in cell proliferation assay, cell line PC-3): > 31.6 µM
IC50 (134 cancer cell lines; read-out: IC50 in cell proliferation assay, cell line RD): 0.059 µM
IC50 (134 cancer cell lines; read-out: IC50 in cell proliferation assay, cell line RKO (BRAF p.V600E)): 0.367 µM
IC50 (134 cancer cell lines; read-out: IC50 in cell proliferation assay, cell line RL): > 31.6 µM
IC50 (134 cancer cell lines; read-out: IC50 in cell proliferation assay, cell line RT-4 (FGFR3-TACC3)): 21.3 µM
IC50 (134 cancer cell lines; read-out: IC50 in cell proliferation assay, cell line SR (NPM1-ALK)): 25.5 µM
IC50 (134 cancer cell lines; read-out: IC50 in cell proliferation assay, cell line T24): 0.092 µM
IC50 (134 cancer cell lines; read-out: IC50 in cell proliferation assay, cell line TT (RET p.C634W)): > 31.6 µM
IC50 (134 cancer cell lines; read-out: IC50 in cell proliferation assay, cell line VA-ES-BJ): > 31.6 µM
inhibition at 1 µM [1]: 6%
inhibition at 1 µM [2]: -3.52%
inhibition at 1 µM [3]: 3%
inhibition at 1 µM [4]: -3.42%
inhibition at 1 µM [5]: -0.945%
Structure (SMILES): Cn1cnc2c(F)c(Nc3ccc(Br)cc3Cl)c(C(=O)NOCCO)cc21 [selumetinib]
